Measured values from US20090252687A1, “ASYMMETRIC FLUORO-SUBSTITUTED POLYMETHINE DYES” (priority 2006, published 2009).

Experiment: Photostability of the fluorescence signal
Format: physicochemical
Conditions: 1:1 methanol:water; Karl Storz Xenon 175 light source at 100% intensity for 30 min; fraction of dark control
Protocol: In a further example the photostability of the fluorescence signal was measured. The photostability of Compound 3 (the fluorinated Cy3F pyrylium of Example 19) was studied in comparison with a non-fluorinated analogue, Cy3 pyrylium (Compound C)
The dyes were dissolved in a 1:1 mixture of methanol:water to give an absorbance reading of 1Au at the dyes lambda max and then diluted 20 times for fluorescence measurements. The samples were exposed to light with a Karl Storz Xenon 175 light source at 100% intensity for 30 min. The cuvette was kept in a water bath while exposed to light, to avoid heating. Fluorescence measurements were made on Cary Eclipse (Varian) fluorescence spectrophotometer 1 cm cuvette, ex/em slit 5 nm

| max fluorescence intensity relative to the dark control (photostability) | SMILES |
| --- | --- |
| 0.94 | CN(C)c1ccc2c(c1)OC(C(C)(C)C)=C/C2=C\C=C\C1=[N+](CCCCCC(=O)O)c2c(F)c(F)c(F)c(F)c2C1(C)CCCCS(=O)(=O)[O-] (centres unmarked) [Compound 3, 4-[2-{(1E,3E)-3-[2-tert-butyl-7-(dimethylamino)-4H-chromen-4-ylidene]prop-1-enyl}-1-(5-carboxypentyl)-4,5,6,7-tetrafluoro-3-methyl-3H-indolium-3-yl]butane-1-sulfonate] |
| 0.79 | CN(C)c1ccc2c(c1)OC(C(C)(C)C)=C/C2=C\C=C\C1=[N+](CCCCCC(=O)O)c2ccc(S(=O)(=O)[O-])cc2C1(C)C [Compound C] |
